Assays:
[1] = Drug metabolism in human Huh-luc/neo cells assessed as triphosphate metabolite formation at 10 uM measured after 24 hrs by HPLC-MS analysis; assay type: ADME, cell-based
[2] = Drug metabolism in human Hepatocyte cells assessed as triphosphate metabolite formation at 10 uM measured upto 24 hrs by HPLC-MS analysis; assay type: ADME, cell-based; conditions: hepatocytes
[3] = Drug level in Sprague-Dawley rat liver assessed as triphosphate metabolite concentration at 2 mg/kg, iv measured after 1 hr in presence of ATP by LC-MS/MS analysis; assay type: ADME, organism-based; conditions: in vivo, read-out: Ct
Hepatitis C virus = assay: Anti-viral activity against HCV genotype 2a infected in 2aLucNeo-25 cells; assay type: functional, organism-based, Hepacivirus hominis
[4] = Tmax in Sprague-Dawley rat at 1 mg/kg, iv by reverse phase chromatography; assay type: ADME, organism-based; conditions: in vivo
[5] = Tmax in Sprague-Dawley rat at 10 mg/kg, po by reverse phase chromatography; assay type: ADME, organism-based; conditions: in vivo
[6] = Tmax in Cynomolgus monkey at 10 mg/kg, po administered for 7 days by reverse phase chromatography; assay type: ADME, organism-based, Macaca fascicularis; conditions: in vivo, time 7 day
[7] = Cmax in Cynomolgus monkey at 1 mg/kg, iv by reverse phase chromatography; assay type: ADME, organism-based, Macaca fascicularis; conditions: in vivo, time 7 day
[8] = Cmax in Cynomolgus monkey at 10 mg/kg, po administered for 7 days by reverse phase chromatography; assay type: ADME, organism-based, Macaca fascicularis; conditions: in vivo, time 7 day
[9] = Half life in female mouse at 1 mg/kg, iv by reverse phase chromatography; assay type: ADME, organism-based; conditions: in vivo
[10] = Half life in Sprague-Dawley rat at 5 mg/kg, po by reverse phase chromatography; assay type: ADME, organism-based; conditions: in vivo
[11] = Half life in Cynomolgus monkey at 1 mg/kg, iv by reverse phase chromatography; assay type: ADME, organism-based, Macaca fascicularis; conditions: in vivo
[12] = Half life in Cynomolgus monkey at 10 mg/kg, po administered for 7 days by reverse phase chromatography; assay type: ADME, organism-based, Macaca fascicularis; conditions: in vivo, time 7 day
[13] = Volume of distribution in Sprague-Dawley rat at 1 mg/kg, iv by reverse phase chromatography; assay type: ADME, organism-based; conditions: in vivo
[14] = AUC in Sprague-Dawley rat at 1 mg/kg, iv by reverse phase chromatography; assay type: ADME, organism-based; conditions: in vivo
[15] = AUC in Sprague-Dawley rat at 5 mg/kg, po by reverse phase chromatography; assay type: ADME, organism-based; conditions: in vivo
[16] = AUC in Cynomolgus monkey at 1 mg/kg, iv by reverse phase chromatography; assay type: ADME, organism-based, Macaca fascicularis; conditions: in vivo
[17] = AUC in Cynomolgus monkey at 10 mg/kg, po administered for 7 days by reverse phase chromatography; assay type: ADME, organism-based, Macaca fascicularis; conditions: in vivo, time 7 day
[18] = AUC (0 to infinity) in female mouse at 5 mg/kg, po by reverse phase chromatography; assay type: ADME, organism-based; conditions: in vivo
[19] = AUC (0 to infinity) in Sprague-Dawley rat at 5 mg/kg, po by reverse phase chromatography; assay type: ADME, organism-based; conditions: in vivo
[20] = AUC (0 to infinity) in Cynomolgus monkey at 10 mg/kg, po administered for 7 days by reverse phase chromatography; assay type: ADME, organism-based, Macaca fascicularis; conditions: in vivo, time 7 day
[21] = Oral bioavailability in Cynomolgus monkey at 10 mg/kg administered for 7 days by reverse phase chromatography; assay type: ADME, organism-based, Macaca fascicularis; conditions: in vivo, time 7 day
[22] = Drug absorption in human Caco-2 cells; assay type: ADME, cell-based
[23] = Metabolic stability in rat liver microsome assessed as half life in presence of NADPH; assay type: ADME; conditions: liver microsomes
[24] = Metabolic stability in human liver microsome assessed as half life in presence of NADPH; assay type: ADME; conditions: liver microsomes
[25] = Metabolic stability in cryopreserved rat hepatocyte assessed as half life in presence of NADPH; assay type: ADME, cell-based; conditions: cryopreserved hepatocytes
[26] = Metabolic stability in cryopreserved human hepatocyte assessed as half life in presence of NADPH; assay type: ADME, cell-based; conditions: cryopreserved hepatocytes
[27] = biological target: hERG potassium channel (KCNH2) (Homo sapiens, UniProt Q12809); assay: Inhibition of hERG potassium channel expressed in HEK cells at 100 uM relative to control; assay type: toxicity, cell-based; conditions: HEK cells expressing hERG
[28] = Toxicity in rat assessed as effect on respiratory endpoint at 1 to 9 mg/kg, po; assay type: organism-based; conditions: in vivo, dose 1-9 mg/kg
[29] = Toxicity in po dosed rat assessed as no observable adverse effect level; assay type: organism-based; conditions: in vivo
[30] = Toxicity in dog assessed as effect on […] function at 1 to 5 mg/kg, po administered for 3 hr post dose by electrocardiogram analysis; assay type: organism-based, Canis lupus familiaris; conditions: in vivo, dose 1-5 mg/kg
[31] = Genotoxicity in human Lymphocyte assessed as induction of chromosomal aberration upto 3000 ug/ml; assay type: toxicity, cell-based; conditions: dose < 3000 µg/ml
[32] = Genotoxicity in CD-1(ICR)BR mouse assessed as increase in polychromatic erythrocytes at 500 to 2000 mg/kg, po measured after 48 hrs by micronucleus assay; assay type: toxicity, organism-based; conditions: in vivo, dose 500-2000 mg/kg
[33] = Genotoxicity in mouse L5178Y cells assessed as increase in forward mutation at thymidine kinase locus; assay type: toxicity, cell-based
[34] = Toxicity in rat assessed as effect on respiratory measures at 1 to 9 mg/kg, po; assay type: organism-based; conditions: in vivo, dose 1-9 mg/kg
[35] = Toxicity in Sprague-Dawley rat assessed as weight loss at 90 mg/kg, po administered as single dose and measured after 14 days; assay type: organism-based; conditions: in vivo, 336 h, time 14 day
[36] = Toxicity in Sprague-Dawley rat assessed as weight loss at 100 mg/kg, po administered as single dose and measured after 14 days; assay type: organism-based; conditions: in vivo, 336 h, time 14 day
[37] = Toxicity in Sprague-Dawley rat assessed as weight loss at 150 mg/kg, po administered as single dose and measured after 14 days; assay type: organism-based; conditions: in vivo, 336 h, time 14 day
[38] = Toxicity in Sprague-Dawley rat assessed as piloerection at 150 mg/kg, po administered as single dose and measured after 14 days; assay type: organism-based; conditions: in vivo, 336 h, time 14 day
[39] = Toxicity in Sprague-Dawley rat assessed as lethargy at 150 mg/kg, po administered as single dose and measured after 14 days; assay type: organism-based; conditions: in vivo, 336 h, time 14 day
[40] = Toxicity in Sprague-Dawley rat assessed as lethargy at 250 mg/kg, po administered as single dose and measured after 14 days; assay type: organism-based; conditions: in vivo, 336 h, time 14 day
[41] = Toxicity in Sprague-Dawley rat assessed as anogenital staining at 250 mg/kg, po administered as single dose and measured after 14 days; assay type: organism-based; conditions: in vivo, 336 h, time 14 day
[42] = Toxicity in Sprague-Dawley rat assessed as diarrhea at 250 mg/kg, po administered as single dose and measured after 14 days; assay type: organism-based; conditions: in vivo, 336 h, time 14 day
[43] = Toxicity in Sprague-Dawley rat assessed as macroscopic examination at necroscopy at 100 mg/kg, po administered as single dose and measured after 14 days; assay type: organism-based; conditions: in vivo, 336 h, time 14 day
[44] = Toxicity in Sprague-Dawley rat assessed as macroscopic examination at necroscopy at 250 mg/kg, po administered as single dose and measured after 14 days; assay type: organism-based; conditions: in vivo, 336 h, time 14 day
[45] = Toxicity in Sprague-Dawley rat assessed as animal death at 90 to 250 mg/kg, po administered as single dose and measured after 14 days; assay type: organism-based; conditions: in vivo, 336 h, dose 90-250 mg/kg, time 14 day
[46] = Toxicity in cynomolgus monkey assessed as weight loss at 100 to 500 mg/kg, po administered as single dose; assay type: organism-based, Macaca fascicularis; conditions: in vivo, dose 100-500 mg/kg
[47] = Toxicity in Cynomolgus monkey assessed as emesis at 250 to 500 mg/kg, po administered as single dose; assay type: organism-based, Macaca fascicularis; conditions: in vivo, dose 250-500 mg/kg
[48] = Toxicity in Cynomolgus monkey assessed as emesis at 100 mg/kg, po administered twice a day; assay type: organism-based, Macaca fascicularis; conditions: in vivo

Chain of hERG potassium channel (KCNH2) (Q12809 whole entry): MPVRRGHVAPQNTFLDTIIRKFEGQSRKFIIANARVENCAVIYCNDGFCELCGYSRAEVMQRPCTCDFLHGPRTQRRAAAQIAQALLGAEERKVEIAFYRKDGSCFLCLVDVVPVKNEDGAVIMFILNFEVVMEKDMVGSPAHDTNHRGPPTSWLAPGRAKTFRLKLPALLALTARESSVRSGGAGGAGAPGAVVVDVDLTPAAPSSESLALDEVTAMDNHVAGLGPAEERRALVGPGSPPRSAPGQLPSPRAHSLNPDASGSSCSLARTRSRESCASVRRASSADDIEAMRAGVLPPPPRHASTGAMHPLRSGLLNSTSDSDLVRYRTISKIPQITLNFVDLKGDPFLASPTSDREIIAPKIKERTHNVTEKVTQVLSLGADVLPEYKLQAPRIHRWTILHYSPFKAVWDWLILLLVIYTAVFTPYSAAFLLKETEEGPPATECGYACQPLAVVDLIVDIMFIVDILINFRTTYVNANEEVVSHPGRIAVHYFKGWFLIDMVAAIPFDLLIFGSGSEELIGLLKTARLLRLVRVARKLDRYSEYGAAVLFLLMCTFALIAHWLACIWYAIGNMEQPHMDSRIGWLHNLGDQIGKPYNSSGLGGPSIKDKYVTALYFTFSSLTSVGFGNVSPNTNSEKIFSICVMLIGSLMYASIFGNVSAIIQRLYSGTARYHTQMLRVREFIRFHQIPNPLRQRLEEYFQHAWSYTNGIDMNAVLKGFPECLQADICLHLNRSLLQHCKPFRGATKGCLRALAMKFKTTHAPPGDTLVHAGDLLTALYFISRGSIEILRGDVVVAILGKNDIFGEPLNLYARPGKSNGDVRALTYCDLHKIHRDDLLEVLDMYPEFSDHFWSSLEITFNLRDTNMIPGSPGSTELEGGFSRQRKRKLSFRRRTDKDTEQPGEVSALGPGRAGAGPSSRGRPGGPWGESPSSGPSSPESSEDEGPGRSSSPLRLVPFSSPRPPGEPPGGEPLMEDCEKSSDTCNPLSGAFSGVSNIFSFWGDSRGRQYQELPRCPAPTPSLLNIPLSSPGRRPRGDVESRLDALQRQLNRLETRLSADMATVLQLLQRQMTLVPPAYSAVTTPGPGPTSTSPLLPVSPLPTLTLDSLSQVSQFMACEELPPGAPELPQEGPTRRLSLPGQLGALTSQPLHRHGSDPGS

C[C@@]1(O)[C@H](O)[C@@H](CO)O[C@H]1c1coc2c(N)ncnc12
Drug metabolism [1]: metabolite_detected
Drug metabolism [2]: metabolite_detected
concentration [3]: 22.6 µM
EC50 (Hepatitis C virus): > 50 µM
Tmax [4]: 4.8 min
Tmax [5]: 0.5 h
Tmax [6]: 0.7 h
Cmax [7]: 3200 ng/mL
Cmax [8]: 2510 ng/mL
half-life [9]: 22.3 h
half-life [10]: 9.18 h
half-life [11]: 24 h
half-life [12]: 26.3 h
Vd [13]: 33.2 L/kg
AUC [14]: 699 ng·h/mL
AUC [15]: 1920 ng·h/mL
AUC [16]: 1930 ng·h/mL
AUC at 168 h [17]: 7260 ng·h/mL
AUC(0-inf) [18]: 4220 ng·h/mL
AUC(0-inf) [19]: 2150 ng·h/mL
AUC(0-inf) [20]: 8010 ng·h/mL
bioavailability [21]: 37.6%
Drug absorption [22]: Not_active
half-life [23]: > 1.67 h
half-life [24]: > 1.67 h
half-life [25]: > 1 h
half-life [26]: > 1 h
inhibition at 100 µM [27]: 1.3%
Activity [28]: Non-toxic
NOAEL [29]: ≤ 9 mg/kg
Activity [30]: Non-toxic
Activity [31]: Non-toxic
Activity [32]: Toxic
Activity [33]: Non-toxic
Activity [34]: Non-toxic
Activity [35]: Toxic
Activity [36]: Non-toxic
Activity [37]: Toxic
Activity [38]: Toxic
Activity [39]: Toxic
Activity [40]: Non-toxic
Activity [41]: Non-toxic
Activity [42]: Non-toxic
Activity [43]: Non-toxic
Activity [44]: Toxic
Activity [45]: Non-toxic
Activity [46]: Non-toxic
Activity [47]: Toxic
Activity [48]: Non-toxic

Reference: ChEMBL document CHEMBL6087385, “Synthesis and biological evaluation of Ribo 7-N/O/S pyrimidine 9-deaza C-nucleoside analogs as new antiviral agents for inhibiting HCV RNA-dependent RNA polymerases” (Eur J Med Chem, 2024)
